Measured values published in ChEMBL document CHEMBL1142810, “Discovery of a potent and selective 5-ht5A receptor antagonist by high-throughput chemistry” (Bioorg Med Chem Lett, 2005).
Each block holds one molecule with its values, some of them ahead of it.

Key:
[1] = target: T1, 5-hydroxytryptamine receptor 5A (Homo sapiens, UniProt P47898); test: Binding affinity towards human 5-hydroxytryptamine receptor 5A expressed in CHO cells using the radioligand [3H]LSD; assay type: cell-based
[2] = target: T1, 5-hydroxytryptamine receptor 5A; test: 5-CT-induced stimulation of [35S]GTP-gamma-S, binding to 5-Hydroxytryptamine receptor 5A expressed in HEK 293 cells with compound at 1 uM; assay type: functional, cell-based; details: HEK293
[3] = target: 5-hydroxytryptamine receptor 2B (Homo sapiens, UniProt P41595); test: Binding affinity towards human 5-hydroxytryptamine receptor 2B expressed in HEK 293 cells using the radioligand [3H]5-HT; assay type: cell-based, HEK293
Chain of 5-hydroxytryptamine receptor 2B (P41595 whole entry): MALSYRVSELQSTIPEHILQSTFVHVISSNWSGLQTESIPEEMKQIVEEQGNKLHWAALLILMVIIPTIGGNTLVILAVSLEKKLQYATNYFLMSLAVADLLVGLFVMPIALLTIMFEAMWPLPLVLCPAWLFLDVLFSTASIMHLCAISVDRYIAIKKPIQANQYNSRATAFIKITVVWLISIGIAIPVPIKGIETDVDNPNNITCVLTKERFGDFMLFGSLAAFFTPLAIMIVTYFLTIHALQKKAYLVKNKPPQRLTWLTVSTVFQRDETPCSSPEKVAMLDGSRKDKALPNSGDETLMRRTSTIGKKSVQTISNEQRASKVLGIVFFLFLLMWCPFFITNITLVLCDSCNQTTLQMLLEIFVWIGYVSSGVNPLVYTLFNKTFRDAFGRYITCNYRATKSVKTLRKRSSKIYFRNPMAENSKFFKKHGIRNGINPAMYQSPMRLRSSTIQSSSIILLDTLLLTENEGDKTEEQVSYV

[4] = target: T2, 5-hydroxytryptamine receptor 2C (Homo sapiens, UniProt P28335); test: Binding affinity towards human 5-hydroxytryptamine receptor 2C expressed in HEK 293 cells using the radioligand [3H]mesulergine; assay type: cell-based, HEK293
T2 sequence (P28335 whole entry): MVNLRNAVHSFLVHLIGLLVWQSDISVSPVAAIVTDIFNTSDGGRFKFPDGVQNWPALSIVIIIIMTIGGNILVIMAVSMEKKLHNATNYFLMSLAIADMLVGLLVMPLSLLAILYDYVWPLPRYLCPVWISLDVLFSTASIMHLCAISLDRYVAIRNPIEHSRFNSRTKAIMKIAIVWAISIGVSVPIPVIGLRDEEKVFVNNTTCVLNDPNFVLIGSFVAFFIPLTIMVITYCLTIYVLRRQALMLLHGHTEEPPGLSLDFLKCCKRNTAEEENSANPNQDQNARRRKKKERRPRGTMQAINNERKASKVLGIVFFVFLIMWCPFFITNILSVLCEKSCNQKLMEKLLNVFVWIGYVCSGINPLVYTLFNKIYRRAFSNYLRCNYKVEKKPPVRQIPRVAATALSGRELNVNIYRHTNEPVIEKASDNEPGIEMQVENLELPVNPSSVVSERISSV

D(3) dopamine receptor = D(3) dopamine receptor (Homo sapiens, UniProt P35462); test: Binding affinity towards human dopamine receptor D3 expressed in CHO cells using the radioligand [125I]iodosulpiride; assay type: cell-based
Chain of D(3) dopamine receptor (P35462 whole entry): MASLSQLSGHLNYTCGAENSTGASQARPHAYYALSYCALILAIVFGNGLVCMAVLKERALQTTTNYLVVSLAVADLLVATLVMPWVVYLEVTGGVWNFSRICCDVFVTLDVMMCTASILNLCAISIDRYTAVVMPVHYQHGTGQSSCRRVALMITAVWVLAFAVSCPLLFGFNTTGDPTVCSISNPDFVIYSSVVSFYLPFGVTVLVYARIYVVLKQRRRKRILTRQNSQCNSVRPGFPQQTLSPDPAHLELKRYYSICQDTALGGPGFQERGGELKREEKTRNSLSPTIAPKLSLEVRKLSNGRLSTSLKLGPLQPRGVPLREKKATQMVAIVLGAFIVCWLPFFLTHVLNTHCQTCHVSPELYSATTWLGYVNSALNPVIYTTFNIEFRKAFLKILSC

[5] = target: T3, 5-hydroxytryptamine receptor 1A (Homo sapiens, UniProt P08908); test: Binding affinity towards human 5-hydroxytryptamine receptor 1A expressed in HEK 293 cells using the radioligand [3H]8-OH-DPAT; assay type: cell-based, HEK293
T3 sequence (P08908 whole entry): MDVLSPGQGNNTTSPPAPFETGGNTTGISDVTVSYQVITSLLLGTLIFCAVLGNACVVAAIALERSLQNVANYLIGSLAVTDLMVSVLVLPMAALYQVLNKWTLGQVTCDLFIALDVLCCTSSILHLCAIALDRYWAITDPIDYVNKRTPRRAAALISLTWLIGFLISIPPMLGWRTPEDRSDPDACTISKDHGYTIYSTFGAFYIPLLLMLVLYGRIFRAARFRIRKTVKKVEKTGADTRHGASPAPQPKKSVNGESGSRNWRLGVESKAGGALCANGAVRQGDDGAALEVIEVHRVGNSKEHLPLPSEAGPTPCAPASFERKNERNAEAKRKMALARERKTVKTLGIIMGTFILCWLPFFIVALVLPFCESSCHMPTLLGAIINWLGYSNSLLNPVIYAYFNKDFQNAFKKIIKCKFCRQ

[6] = target: 5-hydroxytryptamine receptor 1B (Homo sapiens, UniProt P28222); test: Binding affinity towards human 5-hydroxytryptamine receptor 1B expressed in CHO cells using the radioligand [3H]5-HT; assay type: cell-based
Chain of 5-hydroxytryptamine receptor 1B (P28222 whole entry): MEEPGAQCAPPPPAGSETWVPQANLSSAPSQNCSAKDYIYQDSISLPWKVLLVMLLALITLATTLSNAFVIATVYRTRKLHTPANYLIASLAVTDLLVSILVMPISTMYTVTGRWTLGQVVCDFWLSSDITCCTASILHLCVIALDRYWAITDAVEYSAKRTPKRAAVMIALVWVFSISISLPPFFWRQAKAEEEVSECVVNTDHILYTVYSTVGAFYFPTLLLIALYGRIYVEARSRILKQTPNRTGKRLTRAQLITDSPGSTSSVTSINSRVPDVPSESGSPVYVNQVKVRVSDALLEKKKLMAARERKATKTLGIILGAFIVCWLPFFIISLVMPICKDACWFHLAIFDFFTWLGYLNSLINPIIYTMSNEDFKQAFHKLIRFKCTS

[7] = target: T4, 5-hydroxytryptamine receptor 1F (Homo sapiens, UniProt P30939); test: Binding affinity towards human 5-hydroxytryptamine receptor 1F expressed in HEK 293 cells using the radioligand [3H]5-HT; assay type: cell-based, HEK293
T4 sequence (P30939 whole entry): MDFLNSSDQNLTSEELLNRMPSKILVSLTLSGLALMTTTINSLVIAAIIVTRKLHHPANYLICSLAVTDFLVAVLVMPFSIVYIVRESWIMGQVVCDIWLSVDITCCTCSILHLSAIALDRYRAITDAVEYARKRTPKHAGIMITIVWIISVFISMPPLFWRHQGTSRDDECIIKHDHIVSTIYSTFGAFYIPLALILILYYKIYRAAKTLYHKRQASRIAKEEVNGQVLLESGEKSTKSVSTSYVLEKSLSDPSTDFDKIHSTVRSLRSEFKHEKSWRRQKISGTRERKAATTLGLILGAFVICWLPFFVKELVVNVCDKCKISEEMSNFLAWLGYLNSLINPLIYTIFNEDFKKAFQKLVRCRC

D(4) dopamine receptor = target: T5, D(4) dopamine receptor (Homo sapiens, UniProt P21917); test: Binding affinity towards human dopamine receptor D4 expressed in CHO cells using the radioligand [125I]iodosulpiride; assay type: cell-based
T5 sequence (P21917 whole entry): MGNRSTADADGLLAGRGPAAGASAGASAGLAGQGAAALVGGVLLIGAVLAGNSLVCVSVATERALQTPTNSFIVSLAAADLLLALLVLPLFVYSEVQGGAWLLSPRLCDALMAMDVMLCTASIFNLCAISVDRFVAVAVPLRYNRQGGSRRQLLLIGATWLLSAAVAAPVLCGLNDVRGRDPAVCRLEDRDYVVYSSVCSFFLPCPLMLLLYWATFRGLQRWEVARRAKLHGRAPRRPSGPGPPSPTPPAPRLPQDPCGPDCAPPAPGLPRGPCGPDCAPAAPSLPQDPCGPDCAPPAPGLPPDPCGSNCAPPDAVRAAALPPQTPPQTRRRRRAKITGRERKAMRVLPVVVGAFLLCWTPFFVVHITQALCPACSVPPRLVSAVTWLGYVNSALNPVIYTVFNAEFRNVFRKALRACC

[8] = target: 5-hydroxytryptamine receptor 2A (Homo sapiens, UniProt P28223); test: Binding affinity towards human 5-hydroxytryptamine receptor 2A expressed in HEK 293 cells using the radioligand [3H]ketanserin; assay type: cell-based, HEK293
Chain of 5-hydroxytryptamine receptor 2A (P28223 whole entry): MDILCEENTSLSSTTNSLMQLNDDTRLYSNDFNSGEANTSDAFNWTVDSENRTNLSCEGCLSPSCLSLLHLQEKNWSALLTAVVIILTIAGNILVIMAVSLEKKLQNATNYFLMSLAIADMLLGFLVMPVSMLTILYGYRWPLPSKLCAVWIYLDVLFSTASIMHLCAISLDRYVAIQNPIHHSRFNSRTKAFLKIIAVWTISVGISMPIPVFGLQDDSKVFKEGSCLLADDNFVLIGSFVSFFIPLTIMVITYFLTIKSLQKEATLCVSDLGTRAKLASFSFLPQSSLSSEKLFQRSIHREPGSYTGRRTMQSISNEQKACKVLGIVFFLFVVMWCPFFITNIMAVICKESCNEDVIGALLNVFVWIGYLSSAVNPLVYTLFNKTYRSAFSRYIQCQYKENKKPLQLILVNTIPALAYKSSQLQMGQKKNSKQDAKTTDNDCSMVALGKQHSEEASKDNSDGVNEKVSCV

D(2) dopamine receptor = D(2) dopamine receptor (Homo sapiens, UniProt P14416); test: Binding affinity towards human dopamine receptor D2 expressed in CHO cells using the radioligand [125I]iodosulpiride; assay type: cell-based
Chain of D(2) dopamine receptor (P14416 whole entry): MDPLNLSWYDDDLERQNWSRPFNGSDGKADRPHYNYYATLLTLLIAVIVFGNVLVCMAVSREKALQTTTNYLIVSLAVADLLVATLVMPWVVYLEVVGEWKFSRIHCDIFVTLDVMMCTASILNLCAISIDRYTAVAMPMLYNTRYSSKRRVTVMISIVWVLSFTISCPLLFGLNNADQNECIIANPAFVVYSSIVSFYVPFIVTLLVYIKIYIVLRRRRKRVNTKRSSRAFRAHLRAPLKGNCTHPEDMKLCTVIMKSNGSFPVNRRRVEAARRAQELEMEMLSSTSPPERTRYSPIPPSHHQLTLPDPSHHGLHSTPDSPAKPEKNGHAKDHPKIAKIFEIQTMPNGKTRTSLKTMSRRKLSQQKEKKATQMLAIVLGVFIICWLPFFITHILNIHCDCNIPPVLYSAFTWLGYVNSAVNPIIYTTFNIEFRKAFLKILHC

[9] = target: 5-hydroxytryptamine receptor 1D (Homo sapiens, UniProt P28221); test: Binding affinity towards human 5-hydroxytryptamine receptor 1D expressed in CHO cells using the radioligand [3H]5-HT; assay type: cell-based
Chain of 5-hydroxytryptamine receptor 1D (P28221 whole entry): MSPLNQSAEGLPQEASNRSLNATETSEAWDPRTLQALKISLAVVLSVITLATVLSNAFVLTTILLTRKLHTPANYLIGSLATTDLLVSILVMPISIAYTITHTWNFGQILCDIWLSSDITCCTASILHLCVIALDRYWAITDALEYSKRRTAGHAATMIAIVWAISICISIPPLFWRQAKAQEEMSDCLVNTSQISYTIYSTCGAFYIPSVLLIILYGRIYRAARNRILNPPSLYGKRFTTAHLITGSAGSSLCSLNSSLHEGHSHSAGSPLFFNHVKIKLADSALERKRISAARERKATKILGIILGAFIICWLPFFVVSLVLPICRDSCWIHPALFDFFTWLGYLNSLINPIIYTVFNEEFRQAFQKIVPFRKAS

[10] = target: T6, Alpha-1B adrenergic receptor (Homo sapiens, UniProt P35368); test: Binding affinity towards human alpha-1B-adrenergic receptor expressed in CHO cells using the radioligand [3H]prazosin; assay type: cell-based
T6 sequence (P35368 whole entry): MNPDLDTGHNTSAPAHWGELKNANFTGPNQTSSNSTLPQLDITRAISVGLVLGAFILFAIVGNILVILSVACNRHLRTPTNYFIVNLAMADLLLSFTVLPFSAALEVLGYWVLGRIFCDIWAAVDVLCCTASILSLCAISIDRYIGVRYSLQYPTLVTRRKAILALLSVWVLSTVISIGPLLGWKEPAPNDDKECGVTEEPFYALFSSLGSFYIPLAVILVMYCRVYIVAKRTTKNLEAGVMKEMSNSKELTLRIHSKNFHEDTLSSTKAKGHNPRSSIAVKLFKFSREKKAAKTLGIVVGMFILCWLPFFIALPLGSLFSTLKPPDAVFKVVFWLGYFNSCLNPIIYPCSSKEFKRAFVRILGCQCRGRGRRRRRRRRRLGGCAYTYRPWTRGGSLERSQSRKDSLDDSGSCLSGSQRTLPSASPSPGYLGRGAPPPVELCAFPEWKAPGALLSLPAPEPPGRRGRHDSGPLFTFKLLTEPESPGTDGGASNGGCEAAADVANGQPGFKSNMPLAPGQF

[11] = target: 5-hydroxytryptamine receptor 1E (Homo sapiens, UniProt P28566); test: Binding affinity towards human 5-hydroxytryptamine receptor 1E expressed in HEK 293 cells using the radioligand [3H]5-HT; assay type: cell-based, HEK293
Chain of 5-hydroxytryptamine receptor 1E (P28566 whole entry): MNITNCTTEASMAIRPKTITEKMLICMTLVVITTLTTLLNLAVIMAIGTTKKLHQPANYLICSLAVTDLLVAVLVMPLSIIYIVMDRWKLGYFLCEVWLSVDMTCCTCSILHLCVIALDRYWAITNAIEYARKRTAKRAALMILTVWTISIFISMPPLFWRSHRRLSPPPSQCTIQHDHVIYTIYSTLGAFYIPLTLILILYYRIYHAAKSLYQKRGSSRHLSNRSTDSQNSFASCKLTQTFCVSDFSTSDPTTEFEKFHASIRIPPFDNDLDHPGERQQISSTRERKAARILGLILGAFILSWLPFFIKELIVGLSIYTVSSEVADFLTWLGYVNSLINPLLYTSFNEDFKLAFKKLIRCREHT

[12] = target: 5-hydroxytryptamine receptor 7 (Homo sapiens, UniProt P34969); test: Binding affinity towards human 5-hydroxytryptamine receptor 7 expressed in HEK 293 cells using the radioligand [3H]5-CT; assay type: cell-based, HEK293
Chain of 5-hydroxytryptamine receptor 7 (P34969 whole entry): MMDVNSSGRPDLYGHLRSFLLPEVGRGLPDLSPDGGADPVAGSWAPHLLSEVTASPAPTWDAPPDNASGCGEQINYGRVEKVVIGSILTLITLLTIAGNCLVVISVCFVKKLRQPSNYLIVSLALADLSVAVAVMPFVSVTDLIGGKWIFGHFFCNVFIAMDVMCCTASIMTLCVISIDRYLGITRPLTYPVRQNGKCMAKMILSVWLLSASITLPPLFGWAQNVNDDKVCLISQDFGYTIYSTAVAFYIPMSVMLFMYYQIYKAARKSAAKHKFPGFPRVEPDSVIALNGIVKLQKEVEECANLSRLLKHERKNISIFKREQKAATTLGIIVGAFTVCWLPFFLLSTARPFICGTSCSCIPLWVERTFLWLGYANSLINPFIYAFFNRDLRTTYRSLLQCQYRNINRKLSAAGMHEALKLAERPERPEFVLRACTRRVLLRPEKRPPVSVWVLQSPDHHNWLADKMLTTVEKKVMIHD

[13] = target: 5-hydroxytryptamine receptor 6 (Homo sapiens, UniProt P50406); test: Binding affinity towards human 5-hydroxytryptamine receptor 6 expressed in HeLa cells using the radioligand [3H]LSD; assay type: cell-based
Chain of 5-hydroxytryptamine receptor 6 (P50406 whole entry): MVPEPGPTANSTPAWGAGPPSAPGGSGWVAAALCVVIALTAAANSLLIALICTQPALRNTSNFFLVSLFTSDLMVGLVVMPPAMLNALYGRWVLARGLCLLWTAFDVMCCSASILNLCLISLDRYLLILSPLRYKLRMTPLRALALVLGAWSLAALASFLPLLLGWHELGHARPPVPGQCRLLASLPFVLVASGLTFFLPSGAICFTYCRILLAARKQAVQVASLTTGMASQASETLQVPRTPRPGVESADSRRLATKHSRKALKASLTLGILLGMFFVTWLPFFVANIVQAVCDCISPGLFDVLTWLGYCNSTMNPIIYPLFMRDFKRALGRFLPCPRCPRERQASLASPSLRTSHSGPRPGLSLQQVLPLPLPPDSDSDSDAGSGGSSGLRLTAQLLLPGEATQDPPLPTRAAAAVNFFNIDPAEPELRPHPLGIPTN

T1 sequence (P47898 whole entry): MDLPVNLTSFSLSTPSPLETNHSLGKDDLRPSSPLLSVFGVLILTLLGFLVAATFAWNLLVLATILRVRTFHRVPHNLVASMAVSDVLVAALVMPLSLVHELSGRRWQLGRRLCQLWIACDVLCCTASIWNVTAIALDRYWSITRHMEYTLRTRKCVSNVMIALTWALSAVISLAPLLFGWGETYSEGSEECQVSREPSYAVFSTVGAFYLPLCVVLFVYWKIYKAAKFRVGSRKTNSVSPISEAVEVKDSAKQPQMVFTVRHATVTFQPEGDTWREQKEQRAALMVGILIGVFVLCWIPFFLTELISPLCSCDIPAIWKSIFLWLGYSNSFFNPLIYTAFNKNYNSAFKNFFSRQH

SMILES: CN(C)CCN(Cc1ccc(-c2ccc(CNCCc3ccccc3)cc2)cc1)C(=O)CCC1CCCC1
pKb [2]: 8

SMILES: CN(C)CCN(Cc1ccc(-c2ccc(CNCCc3ccccc3)cc2)cc1)C(=O)Nc1ccccc1
Ki [1]: 398 nM

SMILES: CN(C)CCN(Cc1ccc(-c2ccc(CNCCc3ccccc3)cc2)cc1)S(=O)(=O)/C=C/c1ccccc1
Ki [1]: 251 nM

SMILES: CN(C)CCN(Cc1ccc(-c2ccc(CNCCc3ccccc3)cc2)cc1)C(=O)c1ccccc1
Ki [1]: 631 nM

SMILES: O=C(c1ccc2c(c1)OCO2)N(Cc1ccc(-c2ccc(CNCCc3ccccc3)cc2)cc1)Cc1cccnc1
Ki [1]: 200 nM

SMILES: COc1cccc(CCN(Cc2ccc(-c3ccc(CNCCc4ccccc4)cc3)cc2)C(=O)/C=C/c2ccccc2)c1
Ki [1]: 501 nM

More lines, in order of falling Ki [1], values ahead:

Ki [1]: 126 nM
SMILES: c1ccc(CCNCc2ccc(-c3ccc(CNC4CCN(Cc5ccccc5)CC4)cc3)cc2)cc1

Ki [1]: 79.4 nM
SMILES: CN(C)CCN(Cc1ccc(-c2ccc(CNCCc3ccccc3)cc2)cc1)C(=O)C1CC1c1ccccc1 (stereo unspecified)

Ki [1]: 79.4 nM
SMILES: CN(C)CCN(Cc1ccc(-c2ccc(CNCCOc3ccccc3)cc2)cc1)C(=O)CCC1CCCC1

Ki [3]: 1260 nM
Ki [4]: 631 nM
Ki (D(3) dopamine receptor): 1000 nM
Ki [1]: 25.1 nM
Ki [5]: 794 nM
Ki [6]: 631 nM
Ki [7]: > 10000 nM
Ki (D(4) dopamine receptor): 1260 nM
Ki [8]: 398 nM
Ki (D(2) dopamine receptor): 794 nM
Ki [9]: 158 nM
Ki [10]: 200 nM
Ki [11]: > 10000 nM
Ki [12]: 1000 nM
Ki [13]: > 7940 nM
SMILES: CN(C)CCN(Cc1ccc(-c2ccc(CNCCc3ccccc3)cc2)cc1)C(=O)/C=C/c1ccccc1

Ki [1]: 12.6 nM
SMILES: CN(C)CCN(Cc1ccc(-c2ccc(CNCCc3ccccc3)cn2)cc1)C(=O)CCC1CCCC1

Ki [1]: 5.01 nM
SMILES: CN(C)CCN(Cc1ccc(-c2ccc(CNCCc3ccccc3)cn2)cc1)C(=O)/C=C/c1ccccc1
